According to ChEMBL document CHEMBL5506057, “Discovery and Optimization of Potent, Efficacious and Selective Inhibitors Targeting EGFR Exon20 Insertion Mutations” (J Med Chem, 2024):
Activity calls are given as the source filed them. No cut-off for these calls is given here.

Assays:
[1] = Lipophilicity, logD of compound in octanol and aqueous buffer at pH 7.4 incubated for 2 hrs by shake-flask method based LC-MS/MS analysis; format: physicochemical
[2] = Metabolic stability in rat hepatocytes assessed as intrinsic clearance measured per 10^6 cells at 1 uM incubated for 120 mins by LC-MS/MS analysis; format: ADME, cell-based, Hepatocyte; details: read-out: CLH
[3] = Intrinsic permeability in human Caco-2 cells at 10 uM; format: ADME, cell-based; details: read-out: permeability
[4] = Metabolic stability in human liver microsomes assessed as intrinsic clearance at 1 uM incubated for 30 mins in presence of NADPH by LC-MS/MS analysis; format: ADME, Microsome; details: read-out: CLH
[5] = GSH reactivity of compound in phosphate buffer assessed as half-life at pH 7.4 at 1 uM by LC-MS/MS analysis; format: physicochemical; details: phosphate buffer with GSH
[6] = Metabolic stability in CD-1 mouse hepatocytes assessed as intrinsic clearance measured per 10^6 cells at 1 uM incubated for 120 mins by LC-MS/MS analysis; format: ADME, cell-based, Hepatocyte; details: read-out: CLH
[7] = Duration (time) of SCID mouse free plasma concentration cover over EGFR insSVD cell IC50 at 50 mg/kg, po; format: ADME, organism-based; details: in vivo
[8] = Drug metabolism in human liver microsomes assessed as O-dealkylation mediated fluoro-phenolic metabolite formation incubated for 60 mins by LC-MS/MS analysis; format: ADME, Microsome; details: 1 h
[9] = tested on: MDR1; experiment: Efflux ratio of apparent permeability across basolateral to apical side over apical to basolateral side in MDCKII-MDR1 cells at 1 uM incubated for 2 hrs by LC-MS/MS analysis; format: ADME, cell-based, Canis lupus familiaris; details: dog, MDCK-MDR1
[10] = biological target: T1, Epidermal growth factor receptor (Homo sapiens, UniProt P00533); experiment: Inhibition of wildtype EGFR (unknown origin) phosphorylation transfected in human NCI-H2073 cells preincubated for 2 hrs followed by EGF stimulation for 10 mins by HTRF assay; format: cell-based
[11] = (§1) Selectivity ratio of IC50 for inhibition of wildtype EGFR (unknown origin) transfected in human NCI-H2073 cells preincubated for 2 hrs followed by EGF stimulation for 10 mins by HTRF assay to IC50 for inhibition of EGFR D770_N771insSVD mutant (unknown origin) transfected in human NCI-H2073 cells incubated for 2 hrs by HTRF assay; format: cell-based
[12] = biological target: T2, Epidermal growth factor receptor (Homo sapiens, UniProt P00533, D770-N771INSSVD); experiment: Inhibition of EGFR D770_N771insSVD mutant (unknown origin) phosphorylation transfected in human NCI-H2073 cells incubated for 2 hrs by HTRF assay; format: cell-based
[13] = Selectivity ratio of IC50 for inhibition of recombinant wildtype human N-terminal GST-tagged EGFR cytoplasmic domain (669 to 1210 residues) expressed in Sf21 insect cells to IC50 for inhibition of 6His-tagged TEV-GS fused EGFR D770_N771insNPG mutant (G696 to G1210 reisudes) (unknown origin) expressed in Sf21 cells
[14] = Selectivity ratio of Ki/Kinact for inhibition of EGFR D770_N771insNPG mutant (unknown origin) using AQT0099 as substrate to Ki/Kinact for inhibition of wildtype EGFR (unknown origin) using AQT0099 as substrate
[15] = biological target: T1, Epidermal growth factor receptor; experiment: Inhibition of wildtype EGFR (unknown origin) phosphorylation transfected in human NCI-H2073 cells preincubated for 2 hrs followed by EGF stimulation for 10 mins by ELISA; format: cell-based
[16] = as §1, with “ELISA” for “HTRF assay”; format: cell-based
[17] = biological target: T2, Epidermal growth factor receptor; experiment: Inhibition of EGFR D770_N771insSVD mutant (unknown origin) phosphorylation transfected in human NCI-H2073 cells incubated for 2 hrs by ELISA; format: cell-based
[18] = biological target: Epidermal growth factor receptor (Homo sapiens, UniProt P00533, D770-N771INSNPG); experiment: Inhibition of 6His-tagged TEV-GS fused EGFR D770_N771insNPG mutant (G696 to G1210 reisudes) (unknown origin) expressed in Sf21 cells using Poly(Glu,Tyr) peptide as substrate preincubated for 15 mins followed by substrate addition and measured after 30 mins in presence of ATP by ADP-Glo reagent based assay
[19] = biological target: T1, Epidermal growth factor receptor; experiment: Inhibition of recombinant wildtype human N-terminal GST-tagged EGFR cytoplasmic domain (669 to 1210 residues) expressed in Sf21 insect cells using Poly(Glu,Tyr) peptide as substrate preincubated for 15 mins followed by substrate addition and measured after 50 mins in presence of ATP by ADP-Glo reagent based assay
[20] = tested on: Mus musculus; experiment: In vivo inhibition of EGFR phosphorylation in female SCID mouse xenografted with NCI-H2073 cells harboring EGFR D770_N771insSVD mutant at 100 mg/kg, po measured after 1 to 6 hrs by immunoblotting analysis; format: functional, organism-based; details: time 1-6 hrs
[21] = Toxicity in female SCID mouse xenografted with human NCI-H2073 cells harboring EGFR D770_N771insSVD mutant assessed as body weight loss at 100 mg/kg, po administered once daily for 14 days; format: organism-based; details: in vivo, 336 h, time 14 day
[22] = Antitumor activity against human NCI-H2073 cells harboring EGFR D770_N771insSVD mutant xenografted in female SCID mouse assessed as tumor growth inhibition at 100 mg/kg, po administered once daily for 14 days relative to control; format: functional; details: NCI-H2073, 336 h, time 14 day, read-out: TGI
[23] = Antitumor activity against human NCI-H2073 cells harboring wildtype EGFR xenografted in female SCID mouse assessed as tumor growth inhibition at 100 mg/kg, po administered once daily for 15 days relative to control; format: functional; details: NCI-H2073, 360 h, time 15 day, read-out: TGI

T2 sequence (P00533 whole entry, looked up, stated change not applied, the tested form may be a part): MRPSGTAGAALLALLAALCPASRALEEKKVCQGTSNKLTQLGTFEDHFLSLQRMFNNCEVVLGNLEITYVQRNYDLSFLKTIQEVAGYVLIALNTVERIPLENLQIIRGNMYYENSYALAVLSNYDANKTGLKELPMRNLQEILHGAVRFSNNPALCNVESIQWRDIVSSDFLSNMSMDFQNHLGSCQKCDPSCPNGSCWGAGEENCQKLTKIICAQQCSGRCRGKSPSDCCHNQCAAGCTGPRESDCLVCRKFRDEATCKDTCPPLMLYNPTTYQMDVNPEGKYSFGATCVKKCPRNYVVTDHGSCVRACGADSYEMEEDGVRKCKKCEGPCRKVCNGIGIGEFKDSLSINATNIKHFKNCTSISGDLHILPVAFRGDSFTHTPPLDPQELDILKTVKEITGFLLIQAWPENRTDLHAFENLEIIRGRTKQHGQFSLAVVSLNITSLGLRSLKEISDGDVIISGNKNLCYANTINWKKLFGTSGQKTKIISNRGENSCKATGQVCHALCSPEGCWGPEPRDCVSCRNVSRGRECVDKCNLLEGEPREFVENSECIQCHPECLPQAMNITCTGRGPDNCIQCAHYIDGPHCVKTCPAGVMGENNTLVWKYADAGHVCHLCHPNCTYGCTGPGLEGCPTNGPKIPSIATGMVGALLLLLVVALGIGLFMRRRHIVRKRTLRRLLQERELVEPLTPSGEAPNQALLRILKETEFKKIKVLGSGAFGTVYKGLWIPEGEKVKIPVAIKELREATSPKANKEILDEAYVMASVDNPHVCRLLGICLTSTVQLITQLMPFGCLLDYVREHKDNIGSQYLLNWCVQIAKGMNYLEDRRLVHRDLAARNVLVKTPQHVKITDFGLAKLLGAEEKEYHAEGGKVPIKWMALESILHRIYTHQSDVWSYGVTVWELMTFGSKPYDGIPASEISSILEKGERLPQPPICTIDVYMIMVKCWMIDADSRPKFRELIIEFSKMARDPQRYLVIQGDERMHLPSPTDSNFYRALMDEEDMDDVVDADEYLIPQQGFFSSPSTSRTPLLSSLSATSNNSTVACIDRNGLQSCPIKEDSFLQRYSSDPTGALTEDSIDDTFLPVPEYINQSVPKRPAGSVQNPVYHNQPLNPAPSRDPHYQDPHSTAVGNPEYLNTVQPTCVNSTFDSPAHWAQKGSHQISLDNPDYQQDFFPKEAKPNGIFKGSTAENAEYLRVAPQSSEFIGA
T1 sequence (P00533 whole entry): as the sequence (P00533 whole entry, looked up, stated change not applied, the tested form may be a part) above
Chain of Epidermal growth factor receptor (Homo sapiens, UniProt P00533, D770-N771INSNPG) (P00533 whole entry, looked up, stated change not applied, the tested form may be a part): as above

Row | Compound | logD at 2 h [1] | hepatocyte CLint at 1 µM [2] [µL/min/1e6 cells] | microsomal CLint at 1 µM [4] [µL/min/mg] | further results
1 | C=CC(=O)N1CC[C@H](n2cc(-c3ccncc3)c(-c3cccc(NC(=O)c4ncc(C5CC5)o4)c3)n2)C1 | 3.1 | 187 | 166 | Papp at 10 µM [3]: 30 ×10⁻⁶ cm/s
2 | C=CC(=O)N1CC(Oc2cc3c(-c4c[nH]nc4-c4cccc(OC)c4)ncnc3cc2OC)C1 | 2 | – | 33 | –
3 | C=CC(=O)Nc1ccc(OC)c(Nc2nccc(-c3c[nH]nc3-c3cccc(OC)c3)n2)c1 | 4.1 | – | 46 | half-life at 1 µM [5]: 5.35 h; Papp at 10 µM [3]: 64 ×10⁻⁶ cm/s
4 | C=CC(=O)N1CC[C@H](n2cc(-c3ccncc3)c(-c3cccc(NC(=O)c4cn(C5CC5)cn4)c3)n2)C1 | 2.5 | 38 | 64 | hepatocyte CLint at 1 µM [6]: 42 µL/min/1e6 cells; Time [7]: 1 h
5 | Fc1ccccc1COc1cccc(-c2n[nH]cc2-c2ccncc2)c1 | > 4.9 | – | 226 | –
6 | C=CS(=O)(=O)NCCn1cc(-c2ncnc3cc(OC)c(OC)cc23)c(-c2cccc(OC)c2)n1 | 2.2 | – | 192 | half-life at 1 µM [5]: 1.15 h
7 | C=CC(=O)N1CC[C@H](n2cc(-c3ccncc3)c(-c3ccc(F)c(OCc4ccc5c(c4)CN(C)C5=O)c3)n2)C1 | 2.9 | – | > 300 | Drug metabolism [8]: Metabolite_Detected
8 | C=CC(=O)N1CC(n2cc(-c3ccncc3)c(-c3cccc(NC(=O)c4cn(C5CC5)cn4)c3)n2)C1 | 2.2 | 58 | 19 | hepatocyte CLint at 1 µM [6]: 150 µL/min/1e6 cells
9 | C=CC(=O)N1C[C@@H](n2cc(-c3ccncc3)c(-c3cccc(COc4ccc5c(c4)CN(C)C5=O)c3)n2)C[C@H]1C | 3.4 | 58 | > 300 | hepatocyte CLint at 1 µM [6]: 30 µL/min/1e6 cells; Time [7]: 3 h
10 | C=CC(=O)N1C[C@@H](n2cc(-c3ccncc3)c(-c3cccc(OCc4ccc5c(c4)CN(C)C5=O)c3)n2)C[C@H]1C | 3.2 | – | > 300 | –
11 | COc1cc2ncnc(-c3c[nH]nc3-c3cccc(OCc4ccc5c(c4)CN(C)C5=O)c3)c2cc1OC | – | – | > 300 | –
12 | C=CC(=O)N1C[C@@H](n2cc(-c3ccncc3)c(-c3cc(COc4ccc5c(c4)CN(C)C5=O)ccc3F)n2)C[C@H]1C | 3.3 | 55 | > 300 | –
13 | C=CC(=O)N1CC[C@H](n2cc(-c3ccncc3)c(-c3cccc(/C=C/c4ccc5c(c4)CN(C)C5=O)c3)n2)C1 | 3.9 | 28 | 200 | efflux ratio at 2 h, 1 µM [9]: 29; IC50 [10]: > 16000 nM; Ratio IC50 [11]: > 73; hepatocyte CLint at 1 µM [6]: 29 µL/min/1e6 cells; IC50 [12]: 220 nM; Time [7]: 0 h
14 | C=CC(=O)N1C[C@@H](n2cc(-c3ccncc3)c(-c3ccc(F)c(COc4ccc5c(c4)CN(C)C5=O)c3)n2)C[C@H]1C | 3.6 | 173 | > 300 | –
15 | C=CC(=O)N1CC[C@H](n2cc(-c3ccncc3)c(-c3cccc(NC(=O)c4ccc5c(c4)CN(C)C5=O)c3)n2)C1 | 2.2 | 21 | 58 | Papp at 10 µM [3]: < 0.36 ×10⁻⁶ cm/s
16 | C=CC(=O)N1CC[C@H](n2cc(-c3ncnc4cc(OC)c(OC)cc34)c(-c3cccc(OC)c3)n2)C1 | 2.4 | – | 157 | –
17 | C=CC(=O)N1CC[C@H](n2cc(-c3ccncc3)c(-c3cccc(COc4ccc5c(c4)CN(C)C5=O)c3)n2)C1 | 3 | 128 | > 300 | –

Row | Compound | logD at 2 h [1] | hepatocyte CLint at 1 µM [2] [µL/min/1e6 cells] | microsomal CLint at 1 µM [4] [µL/min/mg] | further results
18 | C=CC(=O)N1CC[C@H](n2cc(-c3ccncc3)c(-c3cccc(NC(=O)c4cccc(OC)c4F)c3)n2)C1 | 2.9 | 51 | 175 | Papp at 10 µM [3]: 42 ×10⁻⁶ cm/s
19 | C=CC(=O)N1CC[C@H](n2cc(-c3ccncc3)c(-c3cccc(/C=C/c4cc5n(n4)CCOC5)c3)n2)C1 | 3.5 | 62 | 167 | –
20 | C=CC(=O)NCCn1cc(-c2ncnc3cc(OC)c(OC)cc23)c(-c2cccc(OC)c2)n1 | 2.4 | – | 116 | half-life at 1 µM [5]: 49.3 h
21 | C=CC(=O)Nc1cc(Nc2ncc(C(=O)OC(C)C)c(-c3cn(C)c4ccccc34)n2)c(OC)cc1N(C)CCN(C)C [MOBOCERTINIB] | – | – | – | IC50 [10]: 37 nM; Ratio IC50 [13]: > 0.4; Ratio IC50 [11]: 1.1; Selectivity ratio [14]: 0.63; IC50 [15]: 30 nM; Ratio IC50 [16]: 1.4; IC50 [17]: 22 nM; IC50 [12]: 34 nM; IC50 [18]: < 3 nM; IC50 [19]: 1 nM
22 | C#CC(=O)NCCn1cc(-c2ncnc3cc(OC)c(OC)cc23)c(-c2cccc(OC)c2)n1 | 2.1 | – | 105 | half-life at 1 µM [5]: 0.917 h
23 | C=CC(=O)N1C[C@@H](n2cc(-c3ccncc3)c(-c3cccc(OCc4ccc5c(c4)CN(C)C5=O)c3)n2)C[C@@H]1C | 3 | – | > 300 | –
24 | C=CC(=O)N1CC[C@H](n2cc(-c3ccncn3)c(-c3cccc(/C=C/c4ncc(C5CC5)o4)c3)n2)C1 | 3.7 | 67 | 202 | –
25 | C=CC(=O)Nc1ccc(OC)c(Nc2cc(-c3c[nH]nc3-c3cccc(OCc4ccc5c(c4)CN(C)C5=O)c3)ccn2)c1 | 3.9 | – | > 300 | Papp at 10 µM [3]: 7.5 ×10⁻⁶ cm/s
26 | CN1Cc2cc(COc3cccc(-c4n[nH]cc4-c4ccncc4)c3)ccc2C1=O | 3.1 | – | 77 | Ratio IC50 [13]: > 50; IC50 [18]: 150 nM; IC50 [19]: > 7400 nM
27 | C=CC(=O)N1CC[C@H](n2cc(-c3ccncc3)c(-c3cc(OCc4ccc5c(c4)CN(C)C5=O)ccc3F)n2)C1 | 2.7 | – | > 300 | –
28 | C=CC(=O)N1CC[C@H](n2cc(-c3ccncc3)c(-c3cc(F)cc(OCc4ccc5c(c4)CN(C)C5=O)c3)n2)C1 | 3.3 | – | > 300 | IC50 [10]: > 28000 nM; Ratio IC50 [11]: > 52; IC50 [12]: 540 nM
29 | C=CC(=O)N[C@H]1C=C(C)c2c(-c3cnc4ccccc4c3)c3c(N)ncnc3n2C1 [CLN-081] | – | – | – | IC50 [10]: 77 nM; Ratio IC50 [11]: 3.6; inhibition [20]: Active; Activity [21]: < 10%; Selectivity ratio [14]: 0.79; IC50 [15]: 190 nM; Ratio IC50 [16]: 3.4; IC50 [17]: 57 nM; IC50 [12]: 21 nM; IC50 [18]: < 3 nM; inhibition in vivo at 100 mg/kg [22]: 69%; inhibition in vivo at 100 mg/kg [23]: 63%; IC50 [19]: < 3 nM
30 | C=CC(=O)N1CC[C@@H](n2cc(-c3ncnc4cc(OC)c(OC)cc34)c(-c3cccc(OC)c3)n2)C1 | 2.4 | – | 135 | –
31 | C=CC(=O)N1CC(n2cc(-c3ccncc3)c(-c3cccc(/C=C/c4ncc(C5CC5)o4)c3)n2)C1 | 4.4 | 48 | 51 | hepatocyte CLint at 1 µM [6]: 64 µL/min/1e6 cells
32 | C=CC(=O)N1CC[C@H](n2cc(-c3ccncc3)c(-c3cccc(OCc4ccc5c(c4)CN(C)C5=O)c3)n2)C1 | 2.6 | – | > 264 | hepatocyte CLint at 1 µM [6]: 64 µL/min/1e6 cells
33 | Fc1ccccc1COc1cccc(-c2n[nH]cc2-c2ccncn2)c1 | 3.5 | – | 117 | –
